Laboratory results from ChEMBL document CHEMBL1955803, “Preclinical in vivo evaluation of efficacy, pharmacokinetics, and pharmacodynamics of a novel MEK1/2 kinase inhibitor RO5068760 in multiple tumor models” (Mol Cancer Ther, 2010).
Active and inactive are the calls of the source. The calls are words filed in the database; no cut-off is given here.

Tests used:
[1] = Antitumor activity against human LOX cells expressing B-Raf V600E mutant xenografted in nude mouse assessed as tumor growth inhibition at 200 mg/kg, po bid; type: functional; settings: read-out: GI
[2] = Cmax in human HT-29 cells expressing B-Raf V600E mutant xenografted nude mouse at 50 mg/kg, po bid; type: ADME, organism-based; set-up: dose 50 mg/kg, route oral; settings: in vivo
[3] = Plasma concentration in human HT-29 cells expressing B-Raf V600E mutant xenografted nude mouse at 50 mg/kg, po after 8 hrs; type: ADME, organism-based; set-up: dose 50 mg/kg, route oral
[4] = test system: Mus musculus; assay: Inhibition of MEK-mediated ERK phosphorylation in tumor of human HT-29 cells expressing B-Raf V600E mutant xenografted nude mouse at 50 mg/kg, po after 4 hrs by Western blot analysis relative to control; type: functional; settings: HT-29, 4 h
[5] = AUC (0 to 12 hrs) in human MIAPaCa2 cells expressing K-Ras G12C mutant xenografted nude mouse at 100 mg/kg, po bid; type: ADME, organism-based, MIA PaCa-2; set-up: time < 12 hr, dose 100 mg/kg, route oral; settings: in vivo
[6] = test system: Mus musculus; assay: Average drug concentration in human H460 cells expressing K-Ras Q61H mutant xenografted nude mouse plasma at 200 mg/kg, po qd; type: ADME, organism-based; set-up: dose 200 mg/kg, route oral; settings: in vivo
[7] = molecular target: Dual specificity mitogen-activated protein kinase kinase 1 (Homo sapiens, UniProt Q02750); assay: Inhibition of MEK1 in human MIA PaCa-2 cells assessed as inhibition of ERK phosphorylation by Western blot analysis; type: cell-based
Dual specificity mitogen-activated protein kinase kinase 1, sequence (Q02750 whole entry): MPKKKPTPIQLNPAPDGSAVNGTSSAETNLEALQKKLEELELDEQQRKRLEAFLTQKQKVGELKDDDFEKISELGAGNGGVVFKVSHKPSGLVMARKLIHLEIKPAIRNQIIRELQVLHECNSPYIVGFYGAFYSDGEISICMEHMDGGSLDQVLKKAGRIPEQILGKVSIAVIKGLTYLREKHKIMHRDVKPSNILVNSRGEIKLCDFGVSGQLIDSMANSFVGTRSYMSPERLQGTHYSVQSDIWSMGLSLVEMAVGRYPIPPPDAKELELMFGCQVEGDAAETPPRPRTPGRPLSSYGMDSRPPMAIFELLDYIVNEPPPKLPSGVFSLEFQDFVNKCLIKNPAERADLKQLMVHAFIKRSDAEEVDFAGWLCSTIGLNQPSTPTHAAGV

[8] = test system: Mus musculus; assay: Toxicity in human LOX cells expressing B-Raf V600E mutant xenografted nude mouse assessed as gross signs of adverse effect at 6.25 to 200 mg/kg, po bid for 3 weeks; type: organism-based; set-up: dose 6.25-200 mg/kg, route oral; settings: in vivo, 504 h
[9] = test system: Mus musculus; assay: Inhibition of MEK-mediated ERK phosphorylation in tumor of human LOX cells expressing B-Raf V600E mutant xenografted nude mouse at 100 mg/kg, po after 4 hrs by Western blot analysis relative to control; type: functional
[10] = test system: Mus musculus; assay: Inhibition of MEK-mediated ERK phosphorylation in tumor of human LOX cells expressing B-Raf V600E mutant xenografted nude mouse at 100 mg/kg, po after 2 hrs by Western blot analysis relative to control; type: functional
[11] = test system: Mus musculus; assay: Inhibition of MEK-mediated ERK phosphorylation in po dosed human LOX cells expressing B-Raf V600E mutant xenografted nude mouse plasma by Western blot analysis; type: functional, organism-based
[12] = test system: Mus musculus; assay: Toxicity in human H460 cells expressing K-Ras Q61H mutant xenografted nude mouse assessed as gross signs of adverse effect at 25 to 200 mg/kg, po bid for 3 weeks; type: organism-based; set-up: dose 25-200 mg/kg, route oral; settings: in vivo, 504 h
[13] = test system: NCI-H460; assay: Antitumor activity against human H460 cells expressing K-Ras Q61H mutant xenografted in nude mouse assessed as tumor growth inhibition at 25 mg/kg, po bid; type: functional; settings: read-out: GI
[14] = AUC (0 to 12 hrs) in human H460 cells expressing K-Ras Q61H mutant xenografted nude mouse at 100 mg/kg, po bid; type: ADME, organism-based; set-up: time < 12 hr, dose 100 mg/kg, route oral; settings: in vivo
[15] = Cmax in human H460 cells expressing K-Ras Q61H mutant xenografted nude mouse at 25 mg/kg, po bid; type: ADME, organism-based; set-up: dose 25 mg/kg, route oral; settings: in vivo
[16] = test system: HT-29; assay: Antitumor activity against human HT-29 cells expressing B-Raf V600E mutant xenografted in nude mouse assessed as tumor growth inhibition at 100 mg/kg, po bid; type: functional; settings: read-out: GI
[17] = test system: Mus musculus; assay: Inhibition of MEK-mediated ERK phosphorylation in po dosed human HT-29 cells expressing B-Raf V600E mutant xenografted nude mouse plasma by Western blot analysis; type: functional, organism-based; settings: HT-29, Plasma
[18] = molecular target: T1, Dual specificity mitogen-activated protein kinase kinase; MEK1/2 (Homo sapiens) (UniProt P36507+Q02750); settings: LOX, 2 to 10 uM
T1 sequence (P36507 whole entry, looked up): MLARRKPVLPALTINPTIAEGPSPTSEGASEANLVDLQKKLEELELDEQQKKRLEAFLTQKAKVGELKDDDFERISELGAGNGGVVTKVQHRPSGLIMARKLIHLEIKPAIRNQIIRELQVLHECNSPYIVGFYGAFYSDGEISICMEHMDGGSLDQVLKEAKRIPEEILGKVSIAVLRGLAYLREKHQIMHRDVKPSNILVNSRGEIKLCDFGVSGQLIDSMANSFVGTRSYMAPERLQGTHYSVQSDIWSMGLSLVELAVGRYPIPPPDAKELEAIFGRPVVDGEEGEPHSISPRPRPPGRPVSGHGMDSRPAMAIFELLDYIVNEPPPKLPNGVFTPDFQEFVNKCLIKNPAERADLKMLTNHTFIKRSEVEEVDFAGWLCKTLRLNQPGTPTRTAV
T1 sequence (Q02750 whole entry, looked up): as the sequence (Q02750 whole entry) above
Description: Inhibition of MEK1/2 phosphorylation in human LOX cells at 2 to 10 uM by Western blot analysis

[19] = test system: Mus musculus; assay: Toxicity in human MIAPaCa2 cells expressing K-Ras G12C mutant xenografted nude mouse assessed as gross signs of adverse effect at 25 to 200 mg/kg, po bid for 3 weeks; type: organism-based, MIA PaCa-2; set-up: dose 25-200 mg/kg, route oral; settings: in vivo, 504 h
[20] = molecular target: T1, Dual specificity mitogen-activated protein kinase kinase; MEK1/2 (Homo sapiens); settings: HT-29, 2 to 10 uM
Description: Inhibition of MEK1/2 in human HT-29 cells assessed as down regulation of CDK4/cyclin D1 expression at 2 to 10 uM by Western blot analysis

[21] = Plasma concentration in human LOX cells expressing B-Raf V600E mutant xenografted nude mouse at 100 mg/kg, po after 12 hrs; type: ADME, organism-based; set-up: dose 100 mg/kg, route oral
[22] = test system: MIA PaCa-2; assay: Antitumor activity against human MIAPaCa2 cells expressing K-Ras G12C mutant xenografted in nude mouse assessed as tumor growth inhibition at 50 mg/kg, po bid; type: functional; settings: read-out: GI
[23] = AUC (0 to 12 hrs) in human HT-29 cells expressing B-Raf V600E mutant xenografted nude mouse at 100 mg/kg, po bid; type: ADME, organism-based; set-up: time < 12 hr, dose 100 mg/kg, route oral; settings: in vivo
[24] = Antitumor activity against human LOX cells expressing B-Raf V600E mutant xenografted in nude mouse assessed as tumor growth inhibition at 100 mg/kg, po bid; type: functional; settings: read-out: GI
[25] = test system: Mus musculus; assay: Inhibition of MEK-mediated ERK phosphorylation in tumor of human HT-29 cells expressing B-Raf V600E mutant xenografted nude mouse at 100 mg/kg, po after 12 hrs by Western blot analysis relative to control; type: functional; settings: HT-29, 12 h
[26] = Drug level in human HT-29 cells expressing B-Raf V600E mutant xenografted nude mouse tumor at 50 mg/kg, po after 8 hrs; type: ADME, organism-based, Neoplasm; set-up: dose 50 mg/kg, route oral; settings: read-out: Drug uptake
[27] = AUC (0 to 12 hrs) in human MIAPaCa2 cells expressing K-Ras G12C mutant xenografted nude mouse at 50 mg/kg, po bid; type: ADME, organism-based, MIA PaCa-2; set-up: time < 12 hr, dose 50 mg/kg, route oral; settings: in vivo
[28] = test system: MIA PaCa-2; assay: Antitumor activity against human MIAPaCa2 cells expressing K-Ras G12C mutant xenografted in nude mouse assessed as tumor growth inhibition at 200 mg/kg, po bid; type: functional; settings: read-out: GI
[29] = test system: NCI-H460; assay: Antitumor activity against human H460 cells expressing K-Ras Q61H mutant xenografted in nude mouse assessed as tumor growth inhibition at 200 mg/kg, po bid; type: functional; settings: read-out: GI
[30] = Antitumor activity against human LOX cells expressing B-Raf V600E mutant xenografted in nude mouse assessed as tumor growth inhibition at 25 mg/kg, po bid; type: functional; settings: read-out: GI
[31] = Cmax in human HT-29 cells expressing B-Raf V600E mutant xenografted nude mouse at 100 mg/kg, po bid; type: ADME, organism-based; set-up: dose 100 mg/kg, route oral; settings: in vivo
[32] = test system: MIA PaCa-2; assay: Antitumor activity against human MIAPaCa2 cells expressing K-Ras G12C mutant xenografted in nude mouse assessed as tumor growth inhibition at 25 mg/kg, po bid; type: functional; settings: read-out: GI
[33] = test system: Mus musculus; assay: Inhibition of MEK-mediated ERK phosphorylation in tumor of human HT-29 cells expressing B-Raf V600E mutant xenografted nude mouse at 50 mg/kg, po after 12 hrs by Western blot analysis relative to control; type: functional; settings: HT-29, 12 h
[34] = Drug level in human HT-29 cells expressing B-Raf V600E mutant xenografted nude mouse tumor at 100 mg/kg, po after 4 hrs; type: ADME, organism-based, Neoplasm; set-up: dose 100 mg/kg, route oral; settings: read-out: Drug uptake
[35] = AUC (0 to 12 hrs) in human LOX cells expressing B-Raf V600E mutant xenografted nude mouse at 12.5 mg/kg, po bid; type: ADME, organism-based; set-up: time < 12 hr, dose 12.5 mg/kg, route oral; settings: in vivo
[36] = molecular target: T1, Dual specificity mitogen-activated protein kinase kinase; MEK1/2 (Homo sapiens); settings: LOX, 2 to 10 uM; remark: listed apart in the source
Description: Inhibition of MEK1/2 in human LOX cells assessed as upregulation of p27 expression at 2 to 10 uM by Western blot analysis

Q: Which inhibition in vivo at 200 mg/kg [1] does the source give for `C[C@@H](c1ccccc1)[C@@H](C(=O)Nc1ccc(I)cc1F)N1C(=O)N[C@H](c2ccc(OC[C@H](O)CO)cc2)C1=O` here?
A: > 100%

Q: What about the Cmax [2] of the same compound?
A: 1300 ng/mL

Q: What about the concentration at 8 h [3] of the same compound?
A: 1260 ng/mL

Q: And the inhibition in vivo at 50 mg/kg [4]?
A: 81%

Q: What about the AUC at 12 h [5] of the same compound?
A: 32700 ng·h/mL

Q: And the Cave [6]?
A: 5083 ng/mL

Q: And the IC50 [7]?
A: 69 nM

Q: What about the Activity [8] of the same compound?
A: Non-toxic

Q: And the inhibition in vivo at 100 mg/kg [9]?
A: 83%

Q: And the inhibition in vivo at 100 mg/kg [10]?
A: 86%

Q: What about the EC50 [11] of the same compound?
A: 1360 nM

Q: What about the Activity [12] of the same compound?
A: Non-toxic

Q: What about the inhibition in vivo at 25 mg/kg [13] of the same compound?
A: 64%

Q: What about the AUC at 12 h [14] of the same compound?
A: 62900 ng·h/mL

Q: What about the Cmax [15] of the same compound?
A: 2750 ng/mL

Q: And the inhibition in vivo at 100 mg/kg [16]?
A: 95%

Q: And the EC50 [17]?
A: 3.35 µM

Q: And the inhibition [18]?
A: Active

Q: What about the Activity [19] of the same compound?
A: Non-toxic

Q: And the inhibition [20]?
A: Active

Q: And the concentration at 12 h [21]?
A: 72 ng/mL

Q: And the inhibition in vivo at 50 mg/kg [22]?
A: 84%

Q: What about the AUC at 12 h [23] of the same compound?
A: 18400 ng·h/mL

Q: And the inhibition in vivo at 100 mg/kg [24]?
A: > 100%

Q: And the inhibition in vivo at 100 mg/kg [25]?
A: 0%

Q: And the concentration at 8 h [26]?
A: 906 ng/g

Q: What about the AUC at 12 h [27] of the same compound?
A: 18800 ng·h/mL

Q: What about the inhibition in vivo at 200 mg/kg [28] of the same compound?
A: 97%

Q: And the inhibition in vivo at 200 mg/kg [29]?
A: 80%

Q: What about the inhibition in vivo at 25 mg/kg [30] of the same compound?
A: > 100%

Q: And the Cmax [31]?
A: 4070 ng/mL

Q: And the inhibition in vivo at 25 mg/kg [32]?
A: 71%

Q: And the inhibition in vivo at 50 mg/kg [33]?
A: 0%

Q: And the concentration at 4 h [34]?
A: 945 ng/g

Q: What about the AUC at 12 h [35] of the same compound?
A: 4660 ng·h/mL

Q: And the inhibition [36]?
A: Active
